According to US20090176732A1, “PROTECTED NUCLEOTIDE ANALOGS” (Alios BioPharma Inc., priority 2007, published 2009):

How the values were obtained:
[1] = system: HCV RNA-replicating cell line, AVA5 (genotype 1b, subgenomic replicon); assay: HCV replicon assay, intracellular HCV RNA levels by blot hybridization; type: cell-based, HCV genotype 1b; settings: for EC50: concentration giving 2-fold depression of HCV RNA vs untreated cultures; for EC50 / EC90: normalized to β-actin RNA, daily treatment for three days, assessed at 72 hours, ± S.D.; for EC90: concentration giving 10-fold depression of HCV RNA vs untreated cultures; for Antiviral activity (in words): summary of the Table 1 results in the text
Experimental: Antiviral activity of the test compounds was assessed (Okuse, et al., Antivir. Res. (2005) 65:23) in the stably HCV RNA-replicating cell line, AVA5 (genotype 1b, subgenomic replicon, Blight, et al., Sci. (2000) 290:1972). Compounds were added to dividing cultures daily for three days. […] Intracellular HCV RNA levels and cytotoxicity were assessed 72 hours after treatment.
Intracellular HCV RNA levels were measured using a conventional blot hybridization method, in which HCV RNA levels are normalized to the levels of β-actin RNA in each individual culture (Okuse, et al., Antivir. Res. (2005) 65:23). Cytotoxicity was measured using an established neutral red dye uptake assay (Korba and Gerin, Antivir. Res. (1992) 19:55; Okuse, et al., Antivir. Res. (2005) 65:23). HCV RNA levels in the treated cultures are expressed as a percentage of the mean levels of RNA detected in untreated cultures. The absorbance of the internalized dye at 510 nM (A510) was used for quantitative analysis.
Values presented (±standard deviations [S.D.]) were calculated by linear regression analysis using data combined from all treated cultures. S.D. was calculated using the standard error of regression generated from the linear regression analyses (QuattroPro™).

AVA5 cell line = settings: concentration giving 2-fold depression of neutral red dye uptake vs untreated cultures; daily treatment for three days, assessed at 72 hours; ± S.D.
Experimental: Compounds were added to dividing cultures daily for three days. […] Intracellular HCV RNA levels and cytotoxicity were assessed 72 hours after treatment.
Quadruplicate cultures for HCV RNA levels and cytoxicity (on 96-well plates) were used. A total of 12 untreated control cultures, and triplicate cultures treated with α-interferon (concentrations of: 10 IU/mL, 3.3 IU/mL, 1.1 IU/mL and 0.37 IU/mL) and 2′C-Me-C (concentrations of: 30 μM, 10 μM, 3.3 μM and 1.1 μM) served as assay controls.
HCV RNA levels in the treated cultures are expressed as a percentage of the mean levels of RNA detected in untreated cultures. The absorbance of the internalized dye at […] (A510) was used for quantitative analysis.
Compounds were dissolved in 100% tissue culture grade DMSO (Sigma, Inc.) at 10 mM. Aliquots of test compounds sufficient for one daily treatment were made in individual tubes and all material was stored at −20° C. For the test, the compounds were suspended into culture medium at room temperature, and immediately added to the cell cultures. Compounds were analyzed separately in two groups with separate assay controls. The concentrations of the test compounds were run at concentrations of 10 μM, 3.3 μM, 1.1 μM and 0.37 μM.

Structure (SMILES) | EC50 [1] [µM] | EC90 [1] [µM] | Antiviral activity (in words) [1] | CC50 (AVA5 cell line) [µM]
CCOC(=O)C(COC(C)=O)(COP(=O)(OC[C@H]1O[C@@H](n2cnc(C(N)=O)n2)[C@H](O)[C@@H]1O)OCC(COC(C)=O)(C(=O)OCC)C(=O)OCC)C(=O)OCC [Compound 14, Ribavirin 5′-bis[3-acetyloxy-2,2-bis(ethoxycarbonyl)propyl]phosphate] | 1.6 ± 0.2 | 4.4 ± 0.4 | markedly more active compared to compound 12 | 9.7 ± 0.2
COC(=O)[C@H](C)NP(=O)(OC[C@H]1O[C@@H](n2cnc(C(N)=O)n2)[C@H](O)[C@@H]1O)Oc1ccccc1 (some centres unmarked) [Compound 12] | > 100 | > 100 | inactive | > 100
